Assay results from PubChem BioAssay AID1918944 (Molecular Pharmacology Branch, DTP, NCI, 2023).
“And” between values parts separate entries of the source, which are not always exact repeats. Equal entries are not always repeated.

Test system: 786-0 complex spheroid viability
Assay: Anticancer human tumor 786-0 cell line growth inhibition;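 further: spheroids exposed to agents for seven days before readout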
Settings: for viability, T/C: stronger effect = lower value; active means viability on the fitted dose curve at most 10% of control; inactive means the rest
From the text: Multicellular complex tumor spheroid response to LSD1 Inhibitor Iadademstat in combination with a variety of drugs and investigational agents in selected tumor cell lines
The current study was undertaken to assess response to LSD1 inhibitors in combination with standard-of-care drugs and investigational agents in solid tumor complex spheroid models as well as in the K-562 leukemia. Complex spheroids include a stromal component modeled by human endothelial cells (HUVEC) and fibroblasts modeled by human mesenchymal stem cells (MSCs). The concentration ranges selected for each drug and investigational agent were based upon clinically achievable concentrations if the clinical Cmax of the agent was known.
Compounds. The drugs and investigational agents used in this study are listed on Table 1. All of the agents used, including staurosporine (NSC755774) and gemcitabine (NSC613327), were obtained from the Developmental Therapeutics Program, NCI. FDA-approved anticancer drugs are available from the NCI at http://dtp.nci.nih.gov/branches/dscb/oncology_drugset_explanation.html. Drugs and investigational agents were >95% pure by proton nuclear magnetic resonance (NMR) and liquid chromatography/mass spectrometry (LC/MS). Stock solutions were prepared at 400x in DMSO, stored at -70 degrees C, and diluted in fresh medium prior to their use. The final concentration of DMSO in cell culture wells never exceeded 0.25% (v/v). The FDA-approved anticancer drug set is available from the Developmental Therapeutics Program at https://dtp.cancer.gov/organization/dscb/obtaining/available_plates.htm. All drugs and investigational agents were tested over a range starting from a high concentration at or near the clinical Cmax and decreasing in half-log increments. If the clinical Cmax for an agent had not been determined, the highest concentration tested was 10 microM.
Cell Lines. The patient-derived cancer cell (PDC) lines: 292921-168-R-J2-PDC, K24384-001-R-PDC, and 521955-158-R2-J5-PDC pancreatic carcinomas, 556581-035-R-J1 ovarian carcinoma, 324938-238-R-J1-PDC, 855422-203-R-J1-PDC and 883617-216-R-J1-PDC urothelial bladder carcinomas, 743489-274-T-PDC renal cell carcinoma, 138582-R-J1 Merkel cell tumor, K60290-347-R-J1 and K57222-313-R-J1-PDC glioblastomas, 653999-131-R-J2-PDC, LG0703-F948-PDC, and 349418-098-R-PDC non-small cell lung carcinomas, 885512-296-R-J2-PDC, 171881-019-R-J1-PDC breast carcinomas and 186277-243-T-J2-PDC and 233499-124-R-J2-PDC colon carcinomas were obtained from the NCI Patient-Derived Models Repository (PDMR, https://pdmr.cancer.gov). The established cell lines NCI/ADR-RES (RRID:CVCL_14520 and OVCAR-5 (RRID:CVCL_1628) ovarian carcinomas, 786-O (RRID:CVCL_1051) and A498 (RRID:CVCL_A498) renal cell carcinoma, NCI-H211 (ATCC, cat. CRL-5824; RRID:CVCL_1529), NCI-H196 (ATCC, cat. CRL-5823, RRID:CVCL_1509), SW 1271 (ATCC, cat. CRL-2177, RRID:CVCL_1716) and NCI-H1876 (ATCC, cat. CRL-5902, RRID:CVCL_1503) small cell lung carcinomas, MDA-MB-231 (RRID:CVCL_0062) and MDA-MB-468 (RRID:CVCL_0419)breast carcinomas (10-12). Pooled donor human umbilical vein endothelial cells (HUVEC, Lonza, cat. CC-2519) and human mesenchymal stem cells (hMSC, Lonza, cat. PT-2501) were purchased from Lonza (Walkersville, MD).
Cell Culture. All cells were maintained in an incubator at 37 degrees C and 5% CO2 with 95% humidity. The PDC lines were cultured according to standard operating procedures established by the NCI PDMR (https://pdmr.cancer.gov). Briefly all PDCs were thawed and cultured in Matrigel-coated flasks prepared with a working solution of 1X Ham's F-12 nutrient mix, without supplementation (Invitrogen, Waltham, MA, cat. 11765054), 100 U/mL penicillin-streptomycin (Invitrogen, cat. 15140122), and 2.5% Matrigel (Corning Inc., Corning, NY, cat. 354248) for the first three passages. […]

[1] = curve of first compound, second compound 0.1 µM
[2] = curve of first compound, second compound 0.316 µM
[3] = curve of first compound, second compound 1 µM
[4] = curve of first compound, second compound 3.16 µM
[5] = curve of first compound, second compound 10 µM
[6] = second compound 0.1 µM, first compound 0.0316 µM
[7] = second compound 0.1 µM, first compound 0.1 µM
[8] = second compound 0.1 µM, first compound 0.316 µM
[9] = second compound 0.1 µM, first compound 1 µM
[10] = second compound 0.1 µM, first compound 3.16 µM
[11] = second compound 0.1 µM, first compound 10 µM
[12] = second compound 0.316 µM, first compound 0.0316 µM
[13] = second compound 0.316 µM, first compound 0.1 µM
[14] = second compound 0.316 µM, first compound 0.316 µM
[15] = second compound 0.316 µM, first compound 1 µM
[16] = second compound 0.316 µM, first compound 3.16 µM
[17] = second compound 0.316 µM, first compound 10 µM
[18] = second compound 1 µM, first compound 0.0316 µM
[19] = second compound 1 µM, first compound 0.1 µM
[20] = second compound 1 µM, first compound 0.316 µM
[21] = second compound 1 µM, first compound 1 µM
[22] = second compound 1 µM, first compound 3.16 µM
[23] = second compound 1 µM, first compound 10 µM
[24] = second compound 3.16 µM, first compound 0.0316 µM
[25] = second compound 3.16 µM, first compound 0.1 µM
[26] = second compound 3.16 µM, first compound 0.316 µM
[27] = second compound 3.16 µM, first compound 1 µM
[28] = second compound 3.16 µM, first compound 3.16 µM
[29] = second compound 3.16 µM, first compound 10 µM
[30] = second compound 10 µM, first compound 0.0316 µM
[31] = second compound 10 µM, first compound 0.1 µM
[32] = second compound 10 µM, first compound 0.316 µM
[33] = second compound 10 µM, first compound 1 µM
[34] = second compound 10 µM, first compound 3.16 µM
[35] = second compound 10 µM, first compound 10 µM

O=C(c1cc(Cc2n[nH]c(=O)c3ccccc23)ccc1F)N1CCN(C(=O)C2CC2)CC1 + NC1CCC(NC2CC2c2ccccc2)CC1
8150 nM: IC50 [5]
inactive: viability, T/C [6] 114% | viability, T/C [7] 119% | viability, T/C [8] 111% | viability, T/C [9] 101% | viability, T/C [10] 83.1% | viability, T/C [11] 71.4% | viability, T/C [12] 119% | viability, T/C [13] 112% | viability, T/C [14] 115% | viability, T/C [15] 104% | viability, T/C [16] 87.1% | viability, T/C [17] 72.6% | viability, T/C [18] 115% | viability, T/C [19] 113% | viability, T/C [20] 104% | viability, T/C [21] 92.9% | viability, T/C [22] 76.6% | viability, T/C [23] 62.3% | viability, T/C [24] 99.3% | viability, T/C [25] 99.3% | viability, T/C [26] 100% | viability, T/C [27] 91.8% | viability, T/C [28] 79.3% | viability, T/C [29] 57.3% | viability, T/C [30] 79.8% | viability, T/C [31] 82.7% | viability, T/C [32] 88.4% | viability, T/C [33] 81.7% | viability, T/C [34] 67.2% | viability, T/C [35] 46.3%
> 10000 nM: IC50 [1] | IC50 [2] | IC50 [3] | IC50 [4]

Cn1ncnc1C1c2n[nH]c(=O)c3cc(F)cc(c23)NC1c1ccc(F)cc1 (centres undefined) + NC1CC1c1ccc(-c2cccc(O)c2)cc1
> 100 nM: IC50 [1] | IC50 [2] | IC50 [3] | IC50 [4] | IC50 [5]
inactive: viability, T/C (second compound 0.1 µM, first compound 0.000316 µM) 95.4% | viability, T/C (second compound 0.1 µM, first compound 0.001 µM) 94.4% | viability, T/C (second compound 0.1 µM, first compound 0.00316 µM) 95% | viability, T/C (second compound 0.1 µM, first compound 0.01 µM) 91.9% | viability, T/C [6] 92.4% | viability, T/C [7] 89.3% | viability, T/C (second compound 0.316 µM, first compound 0.000316 µM) 102% | viability, T/C (second compound 0.316 µM, first compound 0.001 µM) 102% | viability, T/C (second compound 0.316 µM, first compound 0.00316 µM) 101% | viability, T/C (second compound 0.316 µM, first compound 0.01 µM) 91% | viability, T/C [12] 94.3% | viability, T/C [13] 95.9% | viability, T/C (second compound 1 µM, first compound 0.000316 µM) 93.3% | viability, T/C (second compound 1 µM, first compound 0.001 µM) 94.5% | viability, T/C (second compound 1 µM, first compound 0.00316 µM) 90.6% | viability, T/C (second compound 1 µM, first compound 0.01 µM) 86.9% | viability, T/C [18] 81.5% | viability, T/C [19] 85% | viability, T/C (second compound 3.16 µM, first compound 0.000316 µM) 88.4% | viability, T/C (second compound 3.16 µM, first compound 0.001 µM) 92.1% | viability, T/C (second compound 3.16 µM, first compound 0.00316 µM) 90.9% | viability, T/C (second compound 3.16 µM, first compound 0.01 µM) 87.8% | viability, T/C [24] 85.2% | viability, T/C [25] 76.4% | viability, T/C (second compound 10 µM, first compound 0.000316 µM) 80.7% | viability, T/C (second compound 10 µM, first compound 0.001 µM) 87% | viability, T/C (second compound 10 µM, first compound 0.00316 µM) 84.3% | viability, T/C (second compound 10 µM, first compound 0.01 µM) 83.2% | viability, T/C [30] 79.8% | viability, T/C [31] 74.5%

NS(=O)(=O)OCC1CC(n2ccc3c(NC4CCc5ccccc54)ncnc32)CC1O (centres undefined)
144 nM and 212 nM: IC50 (curve of compound)
6.08% and 15.5%: viability, T/C (compound 3 µM)
6.87% and 15.1%: viability, T/C (compound 0.949 µM)
inactive: viability, T/C (compound 0.00949 µM) 99.2% and 89.2% | viability, T/C (compound 0.03 µM) 84.4% and 87.8% | viability, T/C (compound 0.0949 µM) 66.8% and 85.6% | viability, T/C (compound 0.3 µM) 23.5% and 34.7%

CC(C)CC(NC(=O)CNC(=O)c1cc(Cl)ccc1Cl)B1OC(=O)CC(CC(=O)O)(C(=O)O)O1 (centres undefined)
11.5 nM and 17.9 nM: IC50 (curve of compound)
inactive: viability, T/C (compound 0.000316 µM) 108% and 107% | viability, T/C (compound 0.001 µM) 106% and 104% | viability, T/C (compound 0.00316 µM) 102% and 106% | viability, T/C (compound 0.01 µM) 49.1% and 64.2% | viability, T/C (compound 0.0316 µM) 30.4% and 36.4% | viability, T/C (compound 0.1 µM) 7.53% and 16.1%

CC1COCCN1c1cc(C2(S(C)(=N)=O)CC2)nc(-c2ccnc3[nH]ccc23)n1 (centres undefined) + NC1CCC(NC2CC2c2ccccc2)CC1
604 nM: IC50 [4]
792 nM: IC50 [2]
795 nM: IC50 [3]
294 nM: IC50 [5]
inactive: viability, T/C [6] 118% | viability, T/C [7] 114% | viability, T/C [8] 104% | viability, T/C [9] 43% | viability, T/C [10] 15.3% | viability, T/C [12] 125% | viability, T/C [13] 116% | viability, T/C [14] 93.4% | viability, T/C [15] 38.1% | viability, T/C [16] 14.7% | viability, T/C [18] 112% | viability, T/C [19] 116% | viability, T/C [20] 89.2% | viability, T/C [21] 40% | viability, T/C [22] 13% | viability, T/C [24] 109% | viability, T/C [25] 103% | viability, T/C [26] 72.8% | viability, T/C [27] 32.3% | viability, T/C [28] 9.43% | viability, T/C [30] 94.1% | viability, T/C [31] 77.5% | viability, T/C [32] 48.3% | viability, T/C [33] 20.8%
active: viability, T/C [11] 6.76% | viability, T/C [17] 6.62% | viability, T/C [23] 4.93% | viability, T/C [29] 5.16% | viability, T/C [34] 5.55% | viability, T/C [35] 2.91%
886 nM: IC50 [1]
